Measurements published in patent EP4682141A1, “TRICYCLIC COMPOUND” (ONO Pharmaceutical Co., Ltd., priority 2023, dated 2024).

Assays:
[1] = biological target: T1, EP1 (Homo sapiens, UniProt P34995); assay: agonist activity on human EP1 receptor (intracellular calcium concentration, EP1-CHO cells); assay type: cell-based
T1 construct: expressed in transfected cells; host or cells: CHO (EP1-CHO)
T1 sequence (P34995 1-402): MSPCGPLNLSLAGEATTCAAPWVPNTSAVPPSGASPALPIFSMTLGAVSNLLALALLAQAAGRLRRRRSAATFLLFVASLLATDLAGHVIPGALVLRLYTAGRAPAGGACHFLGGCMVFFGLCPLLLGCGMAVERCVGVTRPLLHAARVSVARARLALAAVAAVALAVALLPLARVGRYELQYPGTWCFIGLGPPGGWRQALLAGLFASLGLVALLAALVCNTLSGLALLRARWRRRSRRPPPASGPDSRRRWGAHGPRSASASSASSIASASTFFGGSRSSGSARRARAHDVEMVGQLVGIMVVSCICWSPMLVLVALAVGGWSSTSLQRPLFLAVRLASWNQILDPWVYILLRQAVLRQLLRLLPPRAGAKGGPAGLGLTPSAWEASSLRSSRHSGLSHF
Experimental: Using CHO cells (EP1-CHO, EP2-CHO, EP3-Chem1, EP4-CHO and IP-CHO) on which various human prostanoid receptors were forcibly expressed, the agonist activity of the test compound on the various prostanoid receptors was examined using the intracellular calcium concentration for EP1 and EP3, and the intracellular cyclic AMP (hereinafter, abbreviated as cAMP) production amount for EP2, EP4 and IP as indices.
The test compound and control substances (PGE2 and iloprost) were dissolved in dimethyl sulfoxide (DMSO) to prepare a 10 mmol/L solution. The prepared 10 mmol/L solution was thawed at the time of use, serially diluted using DMSO, and diluted with a buffer solution 1 for measurement (Hank's balanced salt solution (Thermofischer scientific) containing 1 w/v% human serum albumin (Sigma), 2 µmol/L indomethacin (Sigma), 2.5 mmol/L probenecid, and 10 mmol/L HEPES-NaOH (pH7.4)) or a buffer solution 2 for measurement (D-PBS (Nacalai Tesque) containing 0.1 w/v% human serum albumin, 2 µmol/L diclofenac (Sigma), and 1 mmol/L 3-isobutyl-1-methylxanthine (Sigma)) to perform experiments.
The intracellular calcium concentration was measured using Calcium 6 Assay Kit (Molecular Devices). On the day before the measurement, EP1-CHO and EP3-Chem 1 were obtained by thawing the frozen cells, suspended using Ham's F-12 medium (Thermofischer scientific) containing inactivated (56°C, 30 min) 9.8 vol% FBS (Thermofischer scientific) and penicillin-streptomycin (Nacalai Tesque), seeded into a 96 well UV plate to 1.0×10^5 cells per well, and static cultured at 37°C in the presence of 5%CO2. On the day of the measurement, the medium was removed, followed by addition of 120 µL of the Calcium indication solution dissolved in the buffer solution 1 for measurement and incubation at room temperature under light-shielding for about 1 hour. After 1 hour incubation, the 96 well UV plates were set in a fluorescence spectrophotometer (FDSS-7000, Hamamatsu Photonics) to measure the intracellular calcium concentration. Thirty microliters of the buffer solution 1 for measurement containing various concentrations of agonists were added, and the mixture was reacted. The intracellular calcium concentration was measured by irradiating the cells with 480 nm excitation light and measuring the fluorescence intensity at 540 nm.

[2] = tested on: diabetes model rat; assay: inhibitory effect on the amount of albumin excreted in urine in diabetes model rat; assay type: in vivo, SDT Fatty rats; conditions: urine collected for 24 hours, urine albumin/urine creatinine ratio
Experimental: Male SDT Fatty rats aged 6 weeks (CLEA Japan) were purchased and preliminarily bred for 1 week or more. Experiments were performed at 8 to 16 weeks of age. The animals were fed ad libitum with solid feed CRF-1 (Oriental Yeast) and watered ad libitum.
Animals were housed in metabolic cages 2 days before test substance administration, and urine was collected for 24 hours. On the day before administration of the test substance, urine albumin and urine creatinine were measured, and grouping was performed by a stratification randomization method based on the urine albumin/urine creatinine ratio (ACR) and the average value of body weights for each group.
The compounds (test substances) of Examples 9-5, 10, 11, 12, 25-7 and 32, and water for injection (Otsuka Pharmaceutical) as a vehicle were orally administered once at 5 mL/kg. The administration dose is described in Table 3.
For evaluation of the amount of albumin excreted in urine of each animal, a urine albumin/urine creatinine ratio (ACR) was measured. After administration of the test substance, the animals were housed in metabolic cages, and urine was collected for 24 hours. Each concentration of urine albumin and urine creatinine was measured using an automatic analyzer 7180 (Hitachi High-Tech), and ACR was calculated by dividing the urine albumin concentration by the urine creatinine concentration.

[3] = tested on: diabetic renal disease model rat; assay: in vivo drug efficacy in diabetic renal disease model rat (single kidney removal, saline); set-up: species or system SDT.Cg-Leprfa/JttJcl (SDT-fatty rat); conditions: 0.1 mg/kg orally once a day for 8 weeks in combination with losartan (30 mg/kg) and canagliflozin (10 mg/kg); 8 weeks after the start of administration
Experimental: A diabetic renal disease model was created by extracting the unilateral kidneys of male SDT.Cg-Leprfa/JttJcl (SDT-fatty/Jcl, CLEA Japan) rats, a type 2 diabetes model, and then giving saline. The in vivo drug efficacy of the present compound on diabetic renal disease was evaluated in this model.
Male SDT.Cg-Leprfa/JttJcl (SDT-fatty rat) aged 4 weeks was purchased from CLEA Japan, and subjected to experiments. The animals were fed ad libitum with Purina5008 (Japan SLC) from the time of arrival, and watered ad libitum. Water was given from the arrival and until 1 week from single kidney removal, and a 0.2 w/v% NaCl solution was given 1 week after single kidney removal.
After acclimation breeding, the body weight was measured, and buprenorphine was subcutaneously administered at a dose of 0.01 mg/kg under inhalation anesthesia with isoflurane (Mayran). After removing hair from the right abdomen of the rat, the right abdomen was disinfected with ethanol and isodine for disinfection and incised to expose the right kidney. The renal artery and vein was ligated with a suture to stop the blood flow, the right kidney was totally removed, and the incision was sutured. The following day, analgesic buprenorphine was administered subcutaneously at a dose of 0.01 mg/kg.
Grouping was performed 3 weeks after single kidney removal. The mice were divided into groups so that the average of the above parameters was almost equal between the groups on the basis of body weight, serum urea nitrogen (BUN), serum creatinine (S-CRE), serum total cholesterol (T-CHO), blood glucose level (GLU), neutral fat (TG), urinary protein (U-TP), urinary albumin (U-ALB), and creatinine clearance (CCr).
All of the compounds of Examples 25-7, 10, 11 and 12 were orally administered once a day for 8 weeks in combination with losartan (30 mg/kg), a renin angiotensin system inhibitor, and canagliflozin (10 mg/kg), a glucose co-transporter inhibitor. The compounds of Examples 25-7, 10, 11 and 12, and losartan were each dissolved in water for injection (Otsuka Pharmaceutical), and canagliflozin was suspended in a 0.5% methyl cellulose solution (Fujifilm Wako Pure Chemical Corporation) to prepare an administration solution. In the Control-1 group, water for injection which is a vehicle of losartan or the compound of Examples 25-7, 10, 11 or 12 was orally administered at 5 mL/kg, and a 0.5% methylcellulose solution which is a vehicle of canagliflozin was orally administered at 2.5 mL/kg once a day for 8 weeks. In the Control-2 group, losartan (30 mg/kg) dissolved in water for injection was orally administered at an administration volume of 2.5 mL/kg, canagliflozin (10 mg/kg) suspended in a 0.5% methyl cellulose solution was orally administered at an administration volume of 2.5 mL/kg, and water for injection which is a vehicle of the compounds of Examples 25-7, 10, 11 and 12 was orally administered at an administration volume of 2.5 mL/kg once a day for 8 weeks. The administration dose is described in Table 8.
Blood was collected by puncturing the tail vein of the rat with an injection needle. Blood was collected in a tube for serum separation (BD Microtainer) and centrifuged to obtain serum. Urine was collected for 24 hours in a metabolic cage for rat under conditions in which a solid feed and water can be freely taken. The obtained urine sample was centrifuged, and the supernatant was subjected to measurement. The concentrations of BUN, S-CRE, T-CHO, TG, U-ALB, U-TP, GLU and U-CRE were measured by an automatic analyzer Hitachi 7180 (Hitachi High-Tech).

[4] = tested on: rat 5/6 kidney-removed model; assay: in vivo drug efficacy on renal damage in rat 5/6 kidney-removed model; set-up: species or system Jcl: Wistar (Wistar) rats; conditions: 0.1 mg/kg orally once a day for 8 weeks; after 8 weeks from the start of administration
Description: The obtained urine sample was centrifuged, and the supernatant was subjected to measurement.

[5] = tested on: Alport syndrome model mice; assay: in vivo drug efficacy in Alport syndrome model mice; set-up: species or system COL4A5 homozygote knockout mice; conditions: Control-4 group: irbesartan (50 mg/kg) orally once a day for 17 weeks; 16 weeks after the start of administration
Experimental: The in vivo drug efficacy of the present compound on Alport syndrome was evaluated using COL4A5 (causative gene of Alport syndrome) knockout mice.
Male wild-type mice and female COL4A5 hetero knockout mice were naturally crossed to obtain offspring. Genotypes of the offspring were confirmed and male COL4A5 homozygote knockout mice were obtained.
The obtained animals were fed ad libitum with CE-2 (CLEA Japan), and watered ad libitum.
The mice were divided into groups using a statistical analysis system EXSUS10.0 so that the body weight and the urine albumin/urine creatinine value at the time of 6 weeks of age were almost uniform in each group.
The test substance and water for injection (Otsuka Pharmaceutical) as a vehicle were orally administered at 10 mL/kg once a day for 17 weeks.
The Control-3 group was orally administered water for injection at 10 mL/kg once a day for 17 weeks. In the Control-4 group, water for injection and an administration solution of irbesartan which is a renin angiotensin system inhibitor were mixed in equal amounts at 5 mL/kg each, and orally administered once a day for 17 weeks.
The administration dose is described in Table 11.
Blood collection was performed by cutting the tail vein of the mice a little with a razor and using a hematocrit capillary. Blood was centrifuged to obtain plasma. Urine was collected for about 16 hours in a metabolic cage for mouse under conditions in which a solid feed and water can be freely taken. The obtained urine sample was centrifuged, and the supernatant was subjected to measurement. Urine albumin (U-ALB) and urine creatinine (U-CRE) concentrations were measured by an automatic analyzer Hitachi 7180 (Hitachi High-Tech), and the creatinine concentration in plasma was measured using LabAssay Creatinine (Fujifilm Wako Shibayagi).

SMILES	EC50 [1]	ACR mean ([2]; 0.1 mg/kg orally once)	other results
CCCCC1=NC2(CCCC2)C(=O)N1Cc1ccc(-c2ccccc2-c2nnn[nH]2)cc1 [Irbesartan, irbesartan, reference compound]			Plasma creatinine mean [5]: 0.771 mg/dL; Urine Albumin/ Urine Creatinine Ratio mean [5]: 31414.47 mg/g
Cc1c(C(=O)O)ccc2c1O[C@H]1CO[C@H](/C=C/C(O)C3(Oc4ccccc4)CCC3)[C@H]1CC2 (stereo partly drawn) [Example 41-2, (1R,3aR,10aR)-1-[(1E,3ξ)-3-hydroxy-3-(1-phenoxycyclobutyl)-1-propen-1-yl]-5-methyl-1,3,3a,9,10,10a-hexahydrofuro[3,4-b][1]benzoxepine-6-carboxylic acid]	> 10 µM		
Cc1c(C(=O)O)ccc2c1O[C@H]1C[C@@H](O)[C@H](/C=C/CC(C)(O)CCC(C)C)[C@H]1CC2 (stereo partly drawn) [Example 13, (1R,2R,3aS,10aR)-2-hydroxy-1-[(1E,4ξ)-4-hydroxy-4,7-dimethyl-1-octen-1-yl]-5-methyl-2,3,3a,9,10,10a-hexahydro-1H-benzo[b]cyclopenta[f]oxepine-6-carboxylic acid]	> 10 µM		
O=C(O)c1ccc2c(c1F)O[C@H]1C[C@@H](Cl)[C@H](/C=C/C(O)C3(c4ccccc4)CCO3)[C@H]1CC2 (stereo partly drawn) [Example 32-6, (1R,2R,3aS,10aR)-2-chloro-5-fluoro-1-{(1E,3ξ)-3-hydroxy-3-[(2ξ)-2-phenyl-2-oxetanyl]-1-propen-1-yl}-2,3,3a,9,10,10a-hexahydro-1H-benzo[b]cyclopenta[f]oxepine-6-carboxylic acid]	> 10 µM		

Continued, in another order:

EC50 [1]	SMILES	ACR mean ([2]; 0.1 mg/kg orally once)	other results
> 10 µM	O=C(O)c1ccc2c(c1F)O[C@H]1C[C@@H](Cl)[C@H](/C=C/C(O)C3(c4ccccc4F)COC3)[C@H]1CC2 (stereo partly drawn) [Example 32, (1R,2R,3aS,10aR)-2-chloro-5-fluoro-1-{(1E,3ξ)-3-[3-(2-fluorophenyl)-3-oxetanyl]-3-hydroxy-1-propen-1-yl}-2,3,3a,9,10,10a-hexahydro-1H-benzo[b]cyclopenta[f]oxepine-6-carboxylic acid]	3086.1 µg/mg	ACR mean ([2]; 0.03 mg/kg orally once): 3391 µg/mg
> 10 µM	CCC(CCC(C)C)C(O)/C=C/[C@@H]1[C@H]2CCc3ccc(C(=O)O)c(C)c3O[C@H]2C[C@H]1O (stereo partly drawn) [Example 10, (1R,2R,3aS,10aR)-1-[(1E,3ξ,4ξ)-4-ethyl-3-hydroxy-7-methyl-1-octen-1-yl]-2-hydroxy-5-methyl-2,3,3a,9,10,10a-hexahydro-1H-benzo[b]cyclopenta[f]oxepine-6-carboxylic acid]	751.6 µg/mg	Serum creatinine mean [3]: 0.50 mg/dL; Amount of albumin excreted in urine mean [4]: 35.47 mg/24 h; ACR mean ([2]; 0.01 mg/kg orally once): 909.3 µg/mg
> 10 µM	Cc1c(C(=O)O)ccc2c1O[C@H]1C[C@@H](O)[C@H](/C=C/C(O)C3(c4ccc(F)cc4)CCC3)[C@H]1CC2 (stereo partly drawn) [Example 9-5, (1R,2R,3aS,10aR)-1-{(1E,3ξ)-3-[1-(4-fluorophenyl)cyclobutyl]-3-hydroxy-1-propen-1-yl}-2-hydroxy-5-methyl-2,3,3a,9,10,10a-hexahydro-1H-benzo[b]cyclopenta[f]oxepine-6-carboxylic acid]	4691.4 µg/mg	ACR mean ([2]; 0.3 mg/kg orally once): 4466.2 µg/mg
